As usually defined, the melting point is the temperature, or range, at which the solid turns liquid.

Data set [1] concerns hypoxemic model rats. Nature of the data set: Determination of oxygen partial pressure increasing action (arterial blood PaO2 gain in hypoxemic model rats). It is filed as in vivo, Sprague-Dawley male rats. Conditions: urethane-anesthetized rats, i.v. continuously 0.1 mg/kg/min, PaO2 measured 10 minutes after completion of administration, gain before vs after. As for the experimental part: Determination of oxygen partial pressure increasing action
Actions of the quinazoline derivatives of the present invention to increase oxygen partial pressure in the arterial blood were determined according to the following method:
Sprague-Dawley male rats having body weights of about 250 g were anesthetized (i.p.) with urethane and cannulated to the respiratory tracts, femoral arteries and femoral veins. An olive oil-charcoal powder suspension (10 mg/ml) was introduced in an amount of 0.8 ml/kg through the respiratory tract cannulae into the lungs to cause the rats to hypoxic state (PaO2≦75 mmHg). The quinazoline derivatives listed in Table 1 were intravenously administered to these hypoxemic model rats continuously at a rate of 0.1 mg/kg/min, and arterial blood oxygen partial pressure value (PaO2) of each rat was measured at the time point of 10 minutes after completion of administration using a blood gas analyzer (Ciba Corning 800 series). Gains (APaO2) were determined based on results of PaO2 measurement made before and after administration of the test compounds.
Actions of the thienopyrimidine derivatives of the present invention to increase oxygen partial pressure in the arterial blood were determined according to the following method:
Sprague-Dawley male rats having body weights of about 250 g were anesthetized (i.p.) with urethane and cannulated to the respiratory tracts, femoral arteries and femoral veins. An olive oil-charcoal powder suspension (10 mg/ml) was introduced in an amount of 0.8 ml/kg through the respiratory tract cannulae into the lungs to cause the rats to be under hypoxic state (PaO2 Δ 75 mmHg). The thienopyrimidine derivatives listed in Table 2 were intravenously administered to these hypoxemic model rats continuously at a rate of 0.1 mg/kg/min, and arterial blood oxygen partial pressure value (PaO2) of each rat was measured at the time point of 10 minutes after completion of administration using a blood gas analyzer (Ciba Corning 800 series). Gains (ΔPaO2) were determined based on results of PaO2 measurement made before and after administration of the test compounds.

Setting [2] is: quinazoline derivatives, hypoxic state (PaO2≦75 mmHg) by olive oil-charcoal powder suspension.
Setting [3] is: thienopyrimidine derivatives, hypoxic state (PaO2 Δ 75 mmHg) by olive oil-charcoal powder suspension.

Take `C=CCNc1nc(NCc2ccccc2)nc2ccc([N+](=O)[O-])cc12` [Example 6, 4-Allylamino-2-benzylamino-6-nitroquinazoline]: the melting point is 216 to 217 °C. Moreover, the ΔPaO2 in data set [1] (setting [2]) turned out to be 48 mmHg.
In turn, `C=CCNc1nc(NC2CCCCC2)nc2ccc([N+](=O)[O-])cc12` [Example 7, 4-Allylamino-2-cyclohexylamino-6-nitroquinazoline] showed a melting point of 183 to 184 °C. Besides, in data set [1] (setting [2]), the ΔPaO2 came to 35 mmHg.
For `C=CCNc1nc(NCCC)c2cc([N+](=O)[O-])ccc2n1` [Example 10, 2-Allylamino-6-nitro-4-propylaminoquinazoline], the melting point was in the range of 211 to 212 °C. Besides, the ΔPaO2 in data set [1] (setting [2]) amounted to 34 mmHg.
`C=CCNc1nc(NC(C)C)nc2ccc([N+](=O)[O-])cc12` [Example 18, 4-Allylamino-2-isopropylamino-6-nitroquinazoline] yielded a melting point of 150 to 151 °C. The ΔPaO2 in data set [1] (setting [2]) came to 30 mmHg.
Regarding `C=CCNc1nc(NC)c2cc([N+](=O)[O-])ccc2n1` [Example 21, 2-Allylamino-4-methylamino-6-nitroquinazoline], the melting point lay in the range of 211 to 212 °C. Also, the ΔPaO2 in data set [1] (setting [2]) is 26 mmHg.
In turn, `C=CCNc1nc(NCC)c2cc([N+](=O)[O-])ccc2n1` [Example 22, 2-Allylamino-4-ethylamino-6-nitroquinazoline] came in with a melting point of 215 to 216 °C. The molecule further had a ΔPaO2 in data set [1] (setting [2]) of 27 mmHg.
For `C=CCNc1nc(NCCOCCC)c2cc([N+](=O)[O-])ccc2n1` [Example 39, 2-Allylamino-6-nitro-4-(2-propoxyethylamino)quinazoline], in that order: 156 to 157 °C and 30 mmHg.
`CCCCNc1nc(NCC=C(C)C)c2cc([N+](=O)[O-])ccc2n1` [Example 60, 2-Butylamino-4-(3-methyl-2-butenylamino)-6-nitroquinazoline] came in with a melting point of 171 to 172 °C. This molecule also registered a ΔPaO2 in data set [1] (setting [2]) of 27 mmHg.
`C=CCNc1nc(NCC=C)c2scc(C)c2n1` [Example 66, 2,4-Diallylamino-7-methylthieno[3,2-d]pyrimidine] showed a melting point of 77 to 80 °C. For the same molecule, the ΔPaO2 in data set [1] (setting [3]) is listed as 26 mmHg.
`C=CCNc1nc(NC(C)(C)C)c2scc(C)c2n1` [Example 68, 2-Allylamino-4-t-butylamino-7-methylthieno[3,2-d] pyrimidine] displayed a melting point of 89 to 90 °C. Moreover, the ΔPaO2 in data set [1] (setting [3]) was 31 mmHg.
As for `C=CCNc1nc(NCC)c2scc(C)c2n1` [Example 76, 2-Allylamino-4-ethylamino-7-methylthieno[3,2-d]pyrimidine], the melting point lay in the range of 96 to 97 °C. This molecule also gave a ΔPaO2 in data set [1] (setting [3]) of 33 mmHg.
Regarding `C=CCNc1nc(NC23CC4CC(CC(C4)C2)C3)c2scc(C)c2n1` [Example 79, 4-(1-Adamantylamino)-2-allylamino-7-methylthieno[3,2-d] pyrimidine], the melting point is 107 to 109 °C. Further, the ΔPaO2 in data set [1] (setting [3]) is 36 mmHg.
On to `C=CCNc1nc(NCCCCCCCCC)c2scc(C)c2n1` [Example 80, 2-Allylamino-4-nonylamino-7-methylthieno[3,2-d]pyrimidine], for which the melting point is 65 to 66 °C. In data set [1] (setting [3]), this molecule registered a ΔPaO2 of 28 mmHg.
`C=CCNc1nc(NCCCC)c2scc(C)c2n1` [Example 81, 2-Allylamino-4-butylamino-7-methylthieno[3,2-d]pyrimidine]: the melting point fell in the range of 68 to 70 °C. The ΔPaO2 in data set [1] (setting [3]) was 29 mmHg.
For `C=CCNc1nc(NC(C)CC)c2scc(C)c2n1` (centres unmarked) [Example 84, 2-Allylamino-7-methyl-4-(1-methylpropylamino)thieno[3,2-d] pyrimidine], the melting point lay in the range of 91 to 92 °C. This molecule registered a ΔPaO2 in data set [1] (setting [3]) of 27 mmHg.
In the case of `C=CCNc1nc(NCC=C)c2scc(CC)c2n1` [Example 103, 2,4-Diallylamino-7-ethylthieno[3,2-d]pyrimidine], the melting point stood at 55 °C. In data set [1] (setting [3]), this molecule showed a ΔPaO2 of 30 mmHg.

For the origin of these results see US20010006969A1, “PYRIMIDINE NUCLEUS-CONTAINING COMPOUND AND A MEDICAMENT CONTAINING THE SAME FOR A BLOOD OXYGEN PARTIAL PRESSURE AMELIORATION, AND A METHOD FOR PREPARING THE SAME” (priority 1997, published 2001).
